Experimental data from publication PMC3907678 (Tumour Biology, 2013).

Target: PDE1 (calmodulin-dependent 3,5-cyclic-nucleotide phosphodiesterase)
Experiment: CaM-dependent PDE1 cAMP hydrolysis assay, Lineweaver-Burk and Dixon plots
Assay type: biochemical

C[C@@H]1CC[C@H]2[C@@H](C)C(=O)O[C@@H]3O[C@@]4(C)CC[C@@H]1[C@]32OO4 [artemisinin]
Ki: 10 µM
